According to patent US7504537B2, “Hydroxamic acid derivative and MMP inhibitor containing the same as active ingredient” (Dainippon Sumitomo Pharma Co., Ltd., priority 2001, dated 2009):
pIC50: −log10 of the molar value.

Key:
Type in all cases: biochemical
MMP-9 = MMP-9 (Homo sapiens, UniProt P14780); experiment: Test 4 MMP-9 inhibiting activity test (biotin labeled gelatin); details: activated human MMP-9, biotin labeled gelatin; read-out: MMP-9 inhibition activity value
Procedure: Test 4 MMP-9 Inhibiting Activity Test
A mixture of buffer solution (190 μl; pH 7.5 solution containing 50 mM Tris-HCl solution, 0.5 m sodium chloride solution and 5 mM calcium chloride solution), human MMP-9 (10 μl) and trypsin solution (20 μl; trypsin 3 mg in activated buffer (5 ml)) was incubated at 37° C. for 10 minutes. Thereto was added aprotinine solution (20 μl; aprotinine (3 mg) in buffer (5 ml)) and the mixture was incubated at 37° C. for 10 minutes, followed by addition of buffer (2 ml). The mixture was preserved under cooling with ice until use.
A mixture of DMSO solution (2 μl) containing definite concentration of the compound, biotin labeled gelatin (188 μl) and activated MMP-9 solution (10 μl) was put on a 96 well-assay plate (protein nonabsorbance type), well agitated, and incubated at 37° C. for 1 hour. This solution was transferred to Streptavidin-coating plate, and agitated at 15° C. to 30° C. for 30 minutes. And then the solution was washed with TTC buffer solution (200 μl) three times. Thereto was added Streptavidin-POD (200 μl) and the mixture was agitated at 15° C. to 25° C. for 60 minutes, followed by washing with TTC buffer (200 μl) three times. Then, ABTS solution (200 μl) was added thereto and after standing at room temperature for 40 minutes, furuorescence intensity was measured at 405 nm and IC50 was calculated.
In case of the above test, DMSO (2 μl) was used as a control instead of a sample solution. In the case of a blank, DMSO (2 μl) instead of the sample solution and the solution (10 μl) prepared in the same manner as preparation of […] but without adding 1.2 Uhuman MMP-9, instead of activated MMP-9 solution (10 μl), were used.

MMP-14 (MT1-MMP) = molecular target: T1, MMP-14 (MT1-MMP) (Homo sapiens, UniProt P50281); experiment: Test 5 MMP-14 (MT1-MMP) inhibiting activity test; details: human recombinant MT1-MMP, 37° C.; read-out: MMP-14 inhibition activity value
T1 construct: purchased Biogenesis, supplied by Cosmobio (Nakarai Tesku)
Procedure: Test 5 MMP-14 (MTI-MMP) Inhibiting Activity Test
Human recombinant MTI-MMP used the product prepared by Biogenesis and supplied by Cosmobio (Nakarai Tesku).
An assay buffer solution (70 μl, pH 7.5 solution containing 0.1M Tris-HCl solution, 0.1M calcium chloride solution, 10 mM sodium chloride solution and 0.05% Brij-35 solution), 0.1 w/w % a compound in DMSO (10 μl), MMP substrate solution (MOCAc-Pro-Leu-Gly-Leu-A2pr(DNP)-Ala-Arg-NH2 (Peptide Lab.) diluted with the assay buffer solution (50 μM, 10 μl)) and human recombinant MT1-MMP (0.4 pg/10 μl/well) were well agitated under stirring. The enzyme activity of the mixture was measured based on fluorescence intensity (λex 320 nm/λem 405 nm) by a fluorescence reader. After the mixture was incubated at 37° C. for 0.5 hour, the fluorescence intensity (λex 320 nm/λem 405 nm) was measured every hour, and IC50 was calculated.
The inhibition value was calculated by withdrawing average value of blank well from fluorescence mean value of well in which MT1-MMP was added. As the blank was used the mixed solution prepared by adding assay buffer (10 μl) instead of MT1-MMP solution.

MMP-13 = molecular target: T2, MMP-13 (Homo sapiens, UniProt P45452); experiment: Test 2 Test on MMP-13 inhibition activity (fluorogenic peptide substrate); details: activated MMP-13, 37° C.
T2 construct: a fragment of 767 bp encoding original 84 amino acids of complete MMP-13 and encoding 164 amino acids; made in house; host or cells: E. coli BL21 (DE3), pET11a
From the text: Test 2 Test on MMP-13 Inhibition Activity
In order to subcloning C-terminal truncated cDNA in which the cDNA encodes procollagenase-3 (proMMP-13) (J. Biol. Chem., 269(24), 16766-16773 (1994)), two synthesized oligonucleotide primer fragments: • (5′-[…]-3′ and 5′-[…]-3′: In former the sequence for specific NdeI site (under line) including first methionine is included, and in latter terminal codon and BamHI site (under lined) are included.) were used with human cartilage cell cDNA library for PCR. Due to these primers and Pfu DNA polymelase (STRATAGENE) for PCR, there was obtained a fragment of 767 bp encoding original 84 amino acids of complete MMP-13 and encoding 164 amino acids. The said fragment was cut out with digestion by NdeI and BamHI, and the fragment was annealed to NdeI site and BamHI site of pET11a (STRATAGENE). The recombinant plasmid was transformed into E. coli BL21 (DE3) and the bacteria were cultivated. The crude cell extract was prepared according to the method of Biochemistry. The said extract was dialyzed with 20 mM Tris-HCl (pH 7.2)/5 mM CaCl2/0.02% NaN3 solution, treated with SP-sepharose HP column (1.6×10 cm, Amasham-Pharmacia biotec), and the eluting was carried out by liner gradient from 0 to 0.3 m of sodium chloride solution (50 ml) (partially purified proMMP-13 was eluted at about 0.2M.) The eluted fraction was dialyzed with 20 mM Tris-HCl (pH 7.9)/5 mM CaCl2/200 mM (NH4)2SO4/0.02% NaN3 solution, treated with phenylsepharose HP column (1.6×5 cm, Amersham-Pharmacia biotec), and the eluting was carried out by liner gradient from 0.2M to 0M sulfuric acid ammonium solution (purified proMMP-13 was eluted at about 50 mM.). The eluted fraction was concentrated by YM-5 ultrafilter membrane, and activated by 4-aminophenyl mercuric acetate. Activated MMP-13 was treated with gel filtration chromatography in accordance with the method of Biochemistry to be separated from propeptide. Inhibiting Test Method
Enzyme activity test was carried out by the method of G. Knight (FEBS Lett., 296(3), 263-266 (1992)).
A mixture of activated MMP-13 (20 nM, 10 μl), buffer solution (70 μl, pH 7.5 solution containing 100 mM Tris-HCl solution, 10 mM calcium chloride solution, 100 mM sodium chloride solution and 0.05% Briji-35 solution), MOCAc-Pro-Leu-Gly-Leu-A2pr(DNP)-Ala-Arg-NH2 in 0.1% DMSO solution (100 μM, 10 μl) and a test compound in DMSO solution was incubated for 1.5 hours at 37° C. The mixture was put on a 96 well-plate (100 μl/wel), and the plate was incubated at 37° C. The enzyme activity in the presence of the compound was measured based on fluorescence intensity (λex 320 nm, λem 405 nm), and IC50 was calculated.

MMP-3 = molecular target: T3, MMP-3 (Homo sapiens, UniProt P08254); experiment: Test 1 Test on MMP-3 inhibiting activity (fluorogenic peptide substrate); details: activated MMP-3, 37° C.; read-out: MMP-3 inhibition activity value
T3 construct: C-terminal truncated cDNA in which the cDNA encodes human prostromelysin; made in house; host or cells: E. coli
T3 sequence (P08254 100-272 limits assumed): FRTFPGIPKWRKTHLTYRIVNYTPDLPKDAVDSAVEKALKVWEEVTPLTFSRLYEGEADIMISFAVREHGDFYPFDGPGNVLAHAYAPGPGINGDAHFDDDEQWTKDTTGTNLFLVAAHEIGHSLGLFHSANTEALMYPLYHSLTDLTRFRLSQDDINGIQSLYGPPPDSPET
Procedure: Test 1 Test on MMP-3 Inhibiting Activity
C-terminal truncated cDNA in which the cDNA encodes human prostromelysin, was subcloned (proMMP-3, cDNA sequence in Nature, 348, 699-704 (1990)), was expressed in E. coli and then, the expressed protein was purified in accordance with the method described in Biochemistry 30, 6476-6483 (1991). proMMP-3 activation was carried out by treating with 1 mM 4-aminophenyl mercuric acetate for 60 minutes at 37° C.
Enzyme activity test was conducted by the method of C. G. Knight (FEBS Lett., 296(3), 263-266 (1992)).
A mixture of activated MMP-3 (20 nM, 10 μl), buffer solution (70 μl, pH 7.5 solution containing 100 mM Tris-HCl solution, 10 mM calcium chloride solution, 100 mM sodium chloride solution and 0.05% Brij-35 solution), MOCAc-Pro-Leu-Gly-Leu-A2pr(DNP)-Ala-Arg-NH2 in 0.1% DMSO solution (100 μM, 10 μl) and a test compound in DMSO solution was incubated for 1.5 hours at 37° C. The mixture was put on a 96 well-plate (100 μl/well) and the plate was cultured at 37° C. The enzyme activity in the presence of the compound was measured based on fluorescence intensity (λex 320 nm, λem 405 nm), and IC50 was calculated.

Sequence of MMP-9 (P14780 107-707 limits assumed): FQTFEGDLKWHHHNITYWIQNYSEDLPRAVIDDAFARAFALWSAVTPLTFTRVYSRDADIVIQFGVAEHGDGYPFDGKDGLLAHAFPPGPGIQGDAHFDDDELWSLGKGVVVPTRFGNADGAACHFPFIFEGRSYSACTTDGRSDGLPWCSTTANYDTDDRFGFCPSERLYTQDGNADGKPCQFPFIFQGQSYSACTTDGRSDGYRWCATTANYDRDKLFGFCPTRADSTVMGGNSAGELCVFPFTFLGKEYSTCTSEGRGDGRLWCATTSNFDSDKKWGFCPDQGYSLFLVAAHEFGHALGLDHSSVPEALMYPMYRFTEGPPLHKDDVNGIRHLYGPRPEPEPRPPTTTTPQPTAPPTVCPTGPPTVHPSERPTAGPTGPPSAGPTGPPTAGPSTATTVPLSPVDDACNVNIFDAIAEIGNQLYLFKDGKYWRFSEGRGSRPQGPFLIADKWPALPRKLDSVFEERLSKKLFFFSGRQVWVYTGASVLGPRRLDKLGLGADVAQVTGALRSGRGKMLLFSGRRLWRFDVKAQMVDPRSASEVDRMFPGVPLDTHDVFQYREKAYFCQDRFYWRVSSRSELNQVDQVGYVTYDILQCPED

With `CC(C)CN(CC(=O)NO)S(=O)(=O)c1ccc(Oc2ccc(S(C)(=O)=O)cc2)cc1` [Example 5, N′^1′-Hydroxy-N′^2′-isobutyl-N′^2′-({4-[4-(methylsulfonyl)phenoxy]phenyl}sulfonyl)glycinamide] as the compound, how does the pIC50 (MMP-9) read?
Its pIC50 is under 7.00.

And the pIC50 (MMP-14 (MT1-MMP))?
The pIC50 was 6.98.

And the pIC50 (MMP-13)?
The pIC50 was 8.89.

What about the pIC50 (MMP-3) of the same compound?
The pIC50 was 7.81.
